{"source": "patent US6310067A", "about": "“Urocanic acid derivatives” (Senju Pharmaceutical Co., Ltd., priority 1998, dated 2001)", "key": {"[1]": {"system": "type IV allergy (afferent phase), mouse contact-type dermatitis in auricles", "experiment": "Type IV allergy (afferent phase), DNFB contact-type dermatitis in auricles, oral administration", "type": "in vivo, Male C57BL/6J mice", "conditions": "30 mg/kg, 1 hr before sensitization, vs distilled water, n = 7-9", "procedure": "The present compound was assessed for its effect on type IV allergy (afferent phase) through oral administrations, using a DNFB contact-type dermatitis model.\n(§1) Male C57BL/6J mice purchased from Clea Japan, Inc. were used.\nThe test compounds were orally administered to the mice. One hr later, sensitization was performed by applying 30 μl of 0.5% DNFB acetone solution. Five days after the sensitization procedure, 10 μl of 0.1% DNFB dissolved in acetone was applied to their right auricles to induce contact-type dermatitis. Then, 24 hrs later, the thickness of the auricles was measured and the rate of edema calculated."}, "[2]": {"system": "type IV allergy (efferent phase), mouse contact-type dermatitis in auricles", "experiment": "Type IV allergy (efferent phase), DNFB contact-type dermatitis in auricles", "type": "in vivo, Male C57BL/6J mice", "conditions": "n = 9-11, 1 hr before induction", "procedure": "The present compound was assessed for its effect on type IV allergy (efferent phase) through oral and topical administrations, using a DNFB contact-type dermatitis model.\nas §1\nThe mice which had their abdominal hair removed on the previous day were sensitized by applying to them on a 1-cm^2 area of their abdominal surface 25 μl of 0.5% dinitrofluorobenzene (DNFB) dissolved in acetone, under anesthesia with ketamine hydrochloride: xylazine hydrochloride (9:1). Five days after the sensitization procedure, 10 μl of 0.1% DNFB dissolved in acetone was applied to the outer side of their right auricles to induce infammation. Twenty-four hrs after the induction of inflammation, the thickness of the auricles was measured with a dial thickness gauge (manufactured by Ozaki Seisakusho) and the rate of edema calculated by comparing it with pre-induction thickness.\nThe test compounds were administered either orally or by topically applying 15 μl of its solution onto the outer side of the auricles, 1 hr before the induction."}, "[3]": {"system": "rat type I allergy (PCA reaction)", "experiment": "Rat type I allergy: passive anaphylaxis (PCA) reaction, oral administration", "type": "in vivo, Male Wistar rats", "conditions": "100 mg/5 ml/kg oral, 60 min before PCA provocation; for Optical density: 625 nm, mean ± standard deviation, n = 5-6; for Inhibition rate (%): vs CMC-Na", "procedure": "The present compound was assessed for its effect on type I allergy through oral administration.\nThe compound of Example 1 100 mg/5 ml/kg\nMale Wistar rats purchased from SLC Japan were used in the test.\nThe rats were intracutaneously injected in the back with 100 μl of antiserum (16-fold dilution) under pentobarbital anesthesia. Forty-eight hrs later, the animals were injected with 5 ml/kg of a mixture of ovalbumin (25 mg/kg) and Evans blue (12.5 mg/kg) to provoke passive anaphylaxis (PCA) reaction.\nThe rats were sacrificed 30 min after the provocation of PCA reaction and dye-infiltrated region of their back skin was cut out, the dye extracted with 5 ml of formamide and its optical density measured (625 nm).\nEach of the test compounds was orally administered 60 min before the provocation of PCA reaction."}, "[4]": {"system": "allergy", "conditions": "background statement, cited from earlier work"}, "[5]": {"conditions": "topical, concentration 0.2%, vs methanol"}, "[6]": {"conditions": "topical, concentration 0.5%, vs methanol"}, "[7]": {"conditions": "Table 4, topically applied (as titled), concentration 0.5%, vs CMC-Na"}}, "note": "Where two headings read alike, the source gives them in different places.", "data": [{"smiles": "COC(=O)C=Cc1cn(CCN2CCN(C(c3ccccc3)c3ccccc3)CC2)cn1", "note": "[Example 1, 1-(Diphenylmethylpiperazinylethyl)urocanic Acid Methyl Ester]", "values": [{"measurement": "Inhibition rate (%)", "setting": "[1]", "result": 47.8, "unit": "%"}, {"measurement": "Inhibition rate (%)", "setting": "[2]; [5]", "result": 73.5, "unit": "%"}, {"measurement": "Inhibition rate (%)", "setting": "[2]; [6]", "result": 83.9, "unit": "%"}, {"measurement": "Optical density", "setting": "[3]", "result": "0.413 ± 0.051"}, {"measurement": "Inhibition rate (%)", "setting": "[3]", "result": 28.7, "unit": "%"}]}, {"smiles": "O=C(O)C=Cc1cn(CCN2CCN(C(c3ccccc3)c3ccccc3)CC2)cn1", "note": "[Example 2, 1-(Diphenylmethylpiperazinylethyl)urocanic Acid]", "values": [{"measurement": "Inhibition rate (%)", "setting": "[1]", "result": 56.2, "unit": "%"}]}, {"smiles": "COC(=O)C=Cc1cn(CCN2CCN(C(c3ccccc3)c3ccccn3)CC2)cn1", "note": "(stereo not shown) [Example 3, 1-[Phenyl(2-pyridyl)methylpiperazinylethyl]urocanic Acid Methyl Ester]", "values": [{"measurement": "Inhibition rate (%)", "setting": "[1]", "result": 49.5, "unit": "%"}, {"measurement": "Inhibition rate (%)", "setting": "[2]; [5]", "result": 47.5, "unit": "%"}, {"measurement": "Inhibition rate (%)", "setting": "[2]; [6]", "result": 79.2, "unit": "%"}, {"measurement": "Optical density", "setting": "[3]", "result": "0.409 ± 0.033"}, {"measurement": "Inhibition rate (%)", "setting": "[3]", "result": 29.2, "unit": "%"}]}, {"smiles": "COC(=O)C=Cc1cn(-c2ccc(N)cc2)cn1", "note": "[Example 5, 1-(4-Aminophenyl)urocanic Acid Methyl Ester]", "values": [{"measurement": "Inhibition rate (%)", "setting": "[2]; [5]", "result": 99.9, "unit": "%"}]}, {"smiles": "COC(=O)C=Cc1cn(-c2nccs2)cn1", "note": "[Example 9, 1-(2,5-Thiazolyl)urocanic Acid Methyl Ester]", "values": [{"measurement": "Inhibition rate (%)", "setting": "[2]; [7]", "result": 89.9, "unit": "%"}]}, {"smiles": "COC(=O)C=Cc1cn(CC=Cc2ccccc2)cn1", "note": "[Example 17, 1-(3-Phenyl-2-propenyl)urocanic Acid Methyl Ester]", "values": [{"measurement": "Inhibition rate (%)", "setting": "[2]; [7]", "result": 70.5, "unit": "%"}]}, {"smiles": "O=C(O)/C=C/c1c[nH]cn1", "note": "[urocanic acid, Urocanic acid]", "values": [{"measurement": "effect on delayed allergy", "setting": "[4]; listed as Urocanic acid", "result": "suppressive effect on delayed allergy"}, {"measurement": "effect on delayed allergy", "setting": "[4]", "result": "by no means satisfactory"}]}]}
